# Assay results taken from US20060079510A1, “Use of PARP-1 inhibitors for protecting tumorcidal lymphocytes from apoptosis” (priority 2004, published 2006).
# “Also recorded” adds a separate entry of the source.
# B1: catalase: H2O2 scavenger (Boehringer-Mannheim) (protein, UniProt P00432 2-527, looked up)
# Catalase: ADNRDPASDQMKHWKEQRAAQKPDVLTTGGGNPVGDKLNSLTVGPRGPLLVQDVVFTDEMAHFDRERIPERVVHAKGAGAFGYFEVTHDITRYSKAKVFEHIGKRTPIAVRFSTVAGESGSADTVRDPRGFAVKFYTEDGNWDLVGNNTPIFFIRDALLFPSFIHSQKRNPQTHLKDPDMVWDFWSLRPESLHQVSFLFSDRGIPDGHRHMNGYGSHTFKLVNANGEAVYCKFHYKTDQGIKNLSVEDAARLAHEDPDYGLRDLFNAIATGNYPSWTLYIQVMTFSEAEIFPFNPFDLTKVWPHGDYPLIPVGKLVLNRNPVNYFAEVEQLAFDPSNMPPGIEPSPDKMLQGRLFAYPDTHRHRLGPNYLQIPVNCPYRARVANYQRDGPMCMMDNQGGAPNYYPNSFSAPEHQPSALEHRTHFSGDVQRFNSANDDNVTQVRTFYLKVLNEEQRKRLCENIAGHLKDAQLFIQKKAVKNFSDVHPEYGSRIQALLDKYNEEKPKNAVHTYVQHGSHLSAREKANL
# How the values were obtained:
# [1] = tested on: AML; assay: Treatment of subjects with AML in remission (Example 1); type: in vivo, human; settings: 3-aminobenzamide s.c. (50 mg/day) with histamine dihydrochloride, IL-2, cytarabine and thioguanine, 21-day cycles
# Description: Subjects with AML in a first, second, subsequent or complete remission are treated in 21-day courses with IL-2 (35-50 μg (equivalent to 6.3-9×10^5 IU) subcutaneously (s.c.). twice daily), repeated with three to six-week intermissions and continued until relapse. In cycle #1, patients receive three weeks of low dose chemotherapy consisting of 16 mg/m^2/day cytarabine, and 40 mg/day thioguanine. Concomitantly, patients are injected subcutaneously with an effective amount of a pharmaceutically acceptable form of a PARP-1 inhibitor, 3-aminobenzamide. Additionally, the patients are administered an effective amount of a pharmaceutically acceptable form of histamine dihydrochloride to boost circulating histamine to a beneficial level twice daily (above 0.2 μmole/L). Histamine levels can be continually boosted to beneficial levels by administering histamine dihydrochloride by injection at 0.2 to 2.0 mg or 3-10 μg/kg twice daily in a pharmaceutically acceptable form of a ROM inhibitory compound during the IL-2 treatment. Thereafter, the subjects are allowed to rest for three to six weeks. After the rest period at the end of the first cycle (cycle #1), the second cycle (cycle #2) is initiated. […]
# [2] = tested on: neoplastic disease and/or viral infection; assay: Treatment of subjects with neoplastic disease and/or viral infection (Example 4); type: in vivo, human; settings: CEP-6800 250 mg/day with IL-2, interferon-α and histamine, repeated every 4-6 weeks
# Description: Subjects in need of enhanced cytotoxic lymphocyte activity, because of a neoplastic disease, and/or a viral infection such as hepatitis B (HBV), hepatitis C(HCV), human immunodeficiency virus (HIV), human papilloma virus (HPV) or herpes simplex virus (HSV) type 1 or 2, or other viral infections, are administered 250 mg/day of CEP-6800, a PARP-1 inhibitor. Additionally, subjects are administered human recombinant IL-2 (Proleukin®, Eurocetus) by subcutaneous injection or by continuous infusion of 27 μg/kg/day on days 1-5 and 8-12. The subjects also receive a daily dose of 6×10^6 U interferon-α administered by a suitable route, such as subcutaneous injection. This treatment also includes administering 0.2 to 2.0 mg or 3-10 μg/kg of histamine injected 1, 2, or more times per day in conjunction with the administration of IL-2 and/or interferon-α.
# The above procedure is repeated every 4-6 weeks until an objective regression of the tumor is observed, or until improvement in the viral infection occurs. The therapy can be continued even after a first, second, or subsequent complete remission has been observed. In patients with complete responses, the therapy can be given with longer intervals between cycles. […]
# [3] = tested on: peripheral blood lymphocytes; assay: Oxidant-induced cell death in lymphocytes incubated with mononuclear phagocytes or hydrogen peroxide, flow cytometry; type: cell-based, human; settings: for protection of lymphocytes from phagocyte-induced cell death (FIG. 1): overnight with autologous mononuclear phagocytes, catalase 200 U/ml, histamine, DPI 3 μM, p<0.001, n=4; for protection of lymphocytes from phagocyte- or hydrogen peroxide-induced (oxidant/ROS-induced) cell death / apoptosis: pretreatment, PJ34 250 nM, DPQ 3 μM, Z-VAD.fmk 100 μM, overnight incubation with phagocytes or H2O2
# Description: Peripheral venous blood was obtained as freshly prepared leukopacks from healthy blood donors at the Blood Centre, Sahlgren's Hospital, Göteborg, Sweden, to study the activation characteristics of cytotoxic lymphocytes in the presence and absence of MO, and ROM inhibitors. The blood (65 ml) was mixed with 92.5 ml Iscove's medium, 35 ml 6% Dextran (Kabi Pharmacia, Stockholm, Sweden) and 7.5 ml acid citrate dextrose (ACD) (Baxter, Deerfield, Ill.). After incubation for 15 minutes at room temperature, the supernatant was carefully layered onto Ficoll-Hypaque (Lymphoprep, Myegaard, Norway). Mononuclear cells (MNC) were collected at the interface after centrifugation at 380 g for 15 minutes at room temperature, washed twice in PBS and resuspended in Iscove's medium supplemented with 10% human AB^+ serum. During all further separation of cells, the cell suspensions were kept in siliconized test tubes (Vacuette, Greiner, Stockholm).
# The MNC were further separated into lymphocyte and monocyte (MO) populations using the counter-current centrifugal elutriation (CCE) technique originally described by Yasaka and co-workers (Yasaka, T. et al., J. Immunol., 127:1515) with modifications as described in Hansson, M., et al. (J. Immunol., 156: 42 (1996); hereby incorporated by reference). Briefly, the sedimentation rate of cells in a spinning rotor was balanced by a counter-directed flow through the chamber. By slowly increasing the flow rate, fractions of cells of well-defined sizes were collected. The MNC were resuspended in elutration buffer containing 0.5% BSA (ICN Biomedicals Inc., Aurora, Ohio) and 0.1% EDTA (VWR, Göteborg, Sweden) in buffered NaCl and fed into a Beckman J2-21 ultracentrifuge with a JE-6B rotor (Bechman Coulter Inc., Fullerton, Calif.) at 2100 rpm. A fraction with >90% MO was obtained at a flow rate of 19 ml/min. A lymphocyte fraction enriched for NK-cells (CD3^−/56^+ phenotype) and T-cells (CD3^+/56^−) was recovered at flow rates of 14-15 ml/min. This fraction contained <3% MO and consisted of CD3ε^−/56^+ NK-cells (45-50%), CD3ε^+/56^− T-cells (35-40%), CD3ε^−/56^− cells (5-10%), and CD3ε^+/56^+ cells (1-5%), as judged by flow cytometry. In some experiments, dynabeads (Dynal A/S, Oslo, Norway) coated with anti-CD56 were used to obtain purified lymphocyte preparations of T-cells, as described in detail by Hansson, M., et al., incorporated above.
# Briefly, lymphocytes were incubated overnight with autologous mononuclear phagocytes in the presence or absence of catalase (200 U/ml), histamine ([…]) or DPI (3 μM).
# Briefly, lymphocytes, pretreated with PJ34 (250 ηM), Z-VAD.fmk (100 μM) or medium, were subjected to mononuclear phagocytes at different Mo/Ly ratios (FIG. 5A) or to different concentrations of H2O2 (FIG. 5C). FIGS. 5A-5D illustrate that PJ34 protected lymphocytes from cell death induced by phagocytes ([…], ratio 1:1, p<0.05) and hydrogen peroxide (FIGS. 5C and 5D, 250 μM, p<0.001).
# [4] = tested on: tumoricidal lymphocytes; assay: Tumor-killing function of tumoricidal lymphocytes after phagocyte or hydrogen peroxide exposure; type: cell-based, human; settings: PJ34 250 nM or DPQ 3 μM
# Text: As detailed above, a significant part of the dysfunction of tumor-killing lymphocytes at the site of malignant tumor growth has been attributed to inhibitory signals from tumor-infiltrating or tumor-adjacent phagocytes. […] However, the molecular events underlying phagocyte-induced lymphocyte apoptosis are not fully understood. The role of two enzyme systems responsible for induction and execution of apoptosis, caspases and the poly(ADP-ribose) polymerase (PARP) were investigated. Human tumoricidal lymphocytes were incubated with autologous mononuclear phagocytes or with exogenously added hydrogen peroxide, and assayed for apoptotic features at various time points. […] It is therefore believed that PARP-dependent cell death may be critically involved in phagocyte-dependent, oxygen free radical-induced cell death.
# [5] = tested on: NK cells; settings: H2-receptor antagonist or agonist; cited from earlier work
molecule,measurement,setting,value
NC(=O)c1cccc(N)c1 [3-aminobenzamide],clinical outcome in AML,[1],reduction in cancer
NCc1ccc2[nH]c3c4c(c5c(c3c2c1)C(=O)NC5=O)CCC4 [CEP-6800],viral infection or tumor mass,[2],reduction in viral infection or tumor mass
"c1ccc([I+]c2ccccc2)cc1 [DPI, diphenyliodonium]",protection of lymphocytes from phagocyte-induced cell death (FIG. 1),[3],fully protected
O=C1NCCc2c(OCCCCN3CCCCC3)cccc21 [DPQ],protection of lymphocytes from phagocyte- or hydrogen peroxide-induced (oxidant/ROS-induced) cell death / apoptosis,[3],completely protected; also recorded: resisted the oxidative stress
same,restoration of tumor-killing function,[4],restored
CN(C)CCCSC(=N)N [dimaprit],effect of histamine on granulocyte mediated suppression of antibody dependent cytotoxicity of NK cells,[5],mimicked
CNC(=C[N+](=O)[O-])NCCSCc1ccc(CN(C)C)o1 [ranitidine],effect of histamine on granulocyte mediated suppression of antibody dependent cytotoxicity of NK cells,[5],blocked
Q-VD.OPh,protection of lymphocytes from phagocyte- or hydrogen peroxide-induced (oxidant/ROS-induced) cell death / apoptosis,[3],failed to protect
B1,protection of lymphocytes from phagocyte-induced cell death (FIG. 1),[3],fully protected
